Assay results reported in patent US20100197625A1, “SYNTHETIC LIPOPHILIC INOSITOL GLYCANS FOR TREATMENT OF CANCER AND GLUCOSE-METABOLISM DISORDERS” (priority 2006, published 2010).

Columns and labels:
ob/ob obese mice = assay: IG-1 treatment for 28 days, ob/ob obese mice; format: in vivo; conditions: IG1 1 mg, Mean ± SD (n = 6)
Experimental: (§1) Blood glucose was assayed with Glucose Ace (Sanwa Kagaku Kenkyusho, Nagoya, Japan). Serum insulin and leptin were determined with ELISA kits (Morinaga Institute of Biological Science, Yokohama, Japan). Serum adiponectin and tumor necrosis factor-α (TNF-α) concentrations were measured with an ELISA kit (Ohtsuka Pharmaceutical, Tokyo, Japan) and a TNF-α assay kit (Amersham Biosciences, Uppsala, Sweden), respectively. Serum total cholesterol, triglyceride, and FFA concentrations were determined with a Cholescolor liquid, Lipidos liquid (TOYOBO, Osaka, Japan), and NEFA C (Wako Pure Chemical, Osaka, Japan) kits, respectively.

[1] = test system: C57B/6 mice on high-fat diets; assay: IG1 treatment for 28 days, mice on high-fat diets; format: in vivo; conditions: data not shown
Experimental: (§2) Male C57BL/6 mice were housed individually and given free access to a standard diet (65% carbohydrate, 4% fat, and 24% protein) or a high-fat diet (Quick Fat; 60.2% carbohydrate, 15.3% fat, and 24.5% protein; Clea Japan, Tokyo, Japan), starting at 5 weeks of age, for 5 weeks. Db/db mice also were housed individually and given free access to a standard diet. C57BL/6 mice at 5 weeks of age, were received a single dose of 75 μg/g body weight streptozotoxin (STZ). 7 days after injections, the mice, whose fasting plasma glucose concentrations were over 400 mg/dl, were used as STZ-diabetic mice. Animal study protocols were in accordance with the institutional guidelines for animal experiments at Tohoku University.
as §1

[2] = test system: human prostate cancer cells (PC3); assay: Cell proliferation / cell death assay, PC3; format: cell-based; conditions: PC3, 10-100 μM
Experimental: (§3) Human pancreatic cancer cell lines (Panc-1, MiaPaca2, BXPC3, Aspc 1), human hepatoma cell line (HuH7), human gastric cancer cell lines (AGS, MKN45), human colon cancer cell line (CoCM-1), human mammary cancer cell line (MCF-7), human neuroblastoma (SH-SY5Y), human prostate cancer cells (PC3), and murine Ehrlich ascites cancer cells and mouse 3T3-L1 fibroblasts were obtained from American Type Culture Collection (Rockville, Md., USA). The cancer cells were cultured in RPMI 1640 containing 10% fetal calf serum. Cultures were maintained at 37° C. in a humidified atmosphere of 5% CO2.
Cell proliferation assays were performed with the CellTiter 96 AQueous One Solution Cell Proliferation Assay kit according to the manufacturer's instructions (Promega, Madison, Wis., USA). Briefly, 5×10^3 cells/well in medium were placed onto 96-well plates. IGs were added to cellular cultures at final concentrations of 0, 1, 10, and 100 μM. […] of CellTiter 96 AQueous One Solution Reagent, which contains a tetrazolium compound, 3-(4,5-dimethylthiazol-2-yl)-5-(3-carboxymethoxyphenyl)-2-(4-sulfophenyl)-2H-tetrazolium, an inner salt; MTS was added to the culture medium. After incubating the plate for 1 h in a CO2 incubator, absorbance at 490 nm was recorded with a 96-well plate reader.

[3] = test system: human colon cancer cells (CoCM-1); assay: Cell proliferation / cell death assay, CoCM-1; format: cell-based; conditions: CoCM-1, 10-100 μM
Experimental: as §3
(§4) Cell proliferation assays were performed with the CellTiter 96 AQueous One Solution Cell Proliferation Assay kit according to the manufacturer's instructions (Promega, Madison, Wis., USA). Briefly, 5×10^3 cells/well in medium were placed onto 96-well plates. IGs were added to cellular cultures at final concentrations of 0, 1, 10, and 100 μM. Cultures were incubated for 3 days or 7 days and then added to 20 μL/well of CellTiter 96 AQueous One Solution Reagent, which contains a tetrazolium compound, 3-(4,5-dimethylthiazol-2-yl)-5-(3-carboxymethoxyphenyl)-2-(4-sulfophenyl)-2H-tetrazolium, an inner salt; MTS was added to the culture medium. After incubating the plate for 1 h in a CO2 incubator, absorbance at 490 nm was recorded with a 96-well plate reader.

[4] = test system: C57B/6 mice on normal diets; assay: Intraperitoneal IG1 for 7 days, mice on normal diets; format: in vivo; conditions: intraperitoneal for every 7 days, data not shown
Experimental: as §2, with “Animal study protocols were in accordance with the institutional guidelines for animal experiments at Tohoku University.” left out
(§5) Frozen livers were homogenized, and triglycerides were extracted with CHCl3:CH3OH (2:1, vol:vol), dried and resuspended in 2-propanol (17). Triglyceride contents were measured using Lipidos liquid (TOYOBO, Osaka, Japan). […] Glycogen content was determined by the phenol-sulfuric acid spectrophotometric method at 490 nm (18) and expressed as micrograms of glycogen per milligram of liver.
as §1, with “Serum total cholesterol, triglyceride, and FFA concentrations were determined with a Cholescolor liquid, Lipidos liquid (TOYOBO, Osaka, Japan), and NEFA C (Wako Pure Chemical, Osaka, Japan) kits, respectively.” left out

[5] = test system: streptozotocin (STZ)-diabetic mice; assay: Intravenous administration of IG1, STZ-diabetic mice; format: in vivo
Experimental: as §2, with “Animal study protocols were in accordance with the institutional guidelines for animal experiments at Tohoku University.” left out
as §5
as §1, with “Serum total cholesterol, triglyceride, and FFA concentrations were determined with a Cholescolor liquid, Lipidos liquid (TOYOBO, Osaka, Japan), and NEFA C (Wako Pure Chemical, Osaka, Japan) kits, respectively.” left out

[6] = test system: db/db, obese-diabetic mice; assay: Intravenous administration of IG1, db/db mice; format: in vivo
Experimental: as §2, with “Animal study protocols were in accordance with the institutional guidelines for animal experiments at Tohoku University.” left out
as §5
as §1, with “Serum total cholesterol, triglyceride, and FFA concentrations were determined with a Cholescolor liquid, Lipidos liquid (TOYOBO, Osaka, Japan), and NEFA C (Wako Pure Chemical, Osaka, Japan) kits, respectively.” left out

native rat adipocytes = assay: Lipogenesis in native rat adipocytes; format: cell-based; conditions: rat isolated adipocytes
Experimental: Adipocytes were isolated from epididymal fat pads dissected from freshly sacrificed male Long-Evans rats and incorporation of [6-^3H]-glucose into triglycerides in response to treatment with inositol glycans or insulin was measured as previously described (Chakraborty, N. and M. d'Alarcao, Bioorganic & Medicinal Chemistry 13 (2005) 6732-6741).

STZ-diabetic mice = assay: Intraperitoneal IG1 for 7 days, STZ-diabetic mice; format: in vivo
Experimental: as §2, with “Animal study protocols were in accordance with the institutional guidelines for animal experiments at Tohoku University.” left out
as §5
as §1, with “Serum total cholesterol, triglyceride, and FFA concentrations were determined with a Cholescolor liquid, Lipidos liquid (TOYOBO, Osaka, Japan), and NEFA C (Wako Pure Chemical, Osaka, Japan) kits, respectively.” left out

Aspc1 = assay: Cell proliferation / cell death assay, Aspc1; format: cell-based, human; conditions: Aspc1, 10-100 μM
Experimental: as §3, §4

MiaPaca2 = assay: Cell proliferation / cell death assay, MiaPaca2; format: cell-based, human; conditions: MiaPaca2, 10-100 μM
Experimental: as §3, §4

Panc-1 cells = assay: Lactate production in Panc-1 cells; format: cell-based, human; conditions: 1 hour incubation in serum free media
Experimental: as §3

CCCCCCCCCCCCCCCC(=O)O[C@@H]1C(O)C(O)[C@H](O)C(O[C@H]2OC(CO)[C@@H](O)[C@H](O)C2N)C1O (stereo in doubt) [IG1, 2-Amino-2-deoxy-α-D-glucopyranosyl-(1→6)-2-palmitoyl-D-myo-inositol]
Adiponectin (ob/ob obese mice): 47.6 ± 4.6 µg/mL
Body weight (ob/ob obese mice): 40.1 ± 3.2 g
Fasting plasma glucose (ob/ob obese mice): 66.1 ± 8.3 mg/dL
Fasting plasma insulin (ob/ob obese mice): 16.3 ± 4.3 ng/mL
Food intake (ob/ob obese mice): 4.53 ± 0.74 g/day
NEFA (ob/ob obese mice): 0.88 ± 0.34 mEq/l
TNF-1α (ob/ob obese mice): 34.7 ± 6.7 pg/mL
Total cholesterol (ob/ob obese mice): 172.4 ± 13.6 mg/dL
Triglyceride (ob/ob obese mice): 31.2 ± 5.3 mg/dL
daily food intakes, body weight, and fasting plasma concentrations of insulin, triglyceride, free fatty acids and leptin [1]: significantly reduces
rapid cancer cell death [2]: rapid cancer cell death was demonstrated
rapid cancer cell death [3]: rapid cancer cell death was demonstrated
glucose tolerance [4]: improves glucose tolerance
hepatic and muscular glycogen synthesis [4]: increases hepatic and muscular glycogen synthesis
hepatic and muscular glycogen synthesis ([5]; STZ-diabetic mice, data not shown): increases hepatic and muscular glycogen synthesis
plasma glucose concentrations ([5]; intravenous, 0.3 mg per mice, 120-300 min after administration): significantly reduced plasma glucose concentrations
hepatic and muscular glycogen synthesis ([6]; data not shown): increases hepatic and muscular glycogen synthesis
plasma glucose concentrations ([6]; intravenous): reduced plasma glucose concentrations
EC50 (native rat adipocytes; Adipocyte, fit to receptor binding model, read-out: EC50 value for stimulation of lipogenesis): 14 µM
Emax (native rat adipocytes; Adipocyte, stimulation of lipogenesis, read-out: Amax (maximal effect)): 24%
stimulation of lipogenesis (native rat adipocytes; concentration series): stimulated lipogenesis
hepatic and muscular glycogen synthesis (STZ-diabetic mice; intraperitoneal 7 days, data not shown): increases hepatic and muscular glycogen synthesis
fasting plasma glucose concentrations (STZ-diabetic mice; intraperitoneal, 0.3 mg per mice, for every 7 days): significantly reduced fasting plasma glucose concentrations
rapid cancer cell death (Aspc1): rapid cancer cell death was demonstrated
rapid cancer cell death (MiaPaca2): rapid cancer cell death was demonstrated
lactate production (aerobic glycolysis) (Panc-1 cells): inhibits lactate production
